ChEMBL document CHEMBL1201862, “PubChem BioAssay data set” (2004)
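These data come from cells grown in 96-well plates and exposed to compound for 48 hours at five concentrations. GI50 = concentration required for 50% inhibition of growth.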 Activity calls are given as the source filed them. Cut-off read from the data, not from the text of the source: active = GI50 up to about 1.1 µM and inactive = higher.

Columns and labels:
Experiment in all cases: DTP human tumour cell line panel, 48 h
HOP-18 = system: HOP-18
HCC 2998 = system: HCC 2998
SN12C = system: SN12C
Malme-3M = system: Malme-3M
COLO 205 = system: COLO 205
OVCAR-4 = system: OVCAR-4
RXF 631 = system: RXF 631
SK-MEL-2 = system: SK-MEL-2
NCI-H460 = system: NCI-H460
DMS-273 = system: DMS-273
SNB-19 = system: SNB-19
LOX IMVI = system: LOX IMVI
K562 = system: K562
EKVX = system: EKVX
NCI-H23 = system: NCI-H23
SK-MEL-5 = system: SK-MEL-5
786-0 = system: 786-0
IGROV-1 = system: IGROV-1
CCRF-CEM = system: CCRF-CEM
A549 = system: A549
U-251 = system: U-251
XF498 = system: XF498
SF-539 = system: SF-539
KM12 = system: KM12
OVCAR-8 = system: OVCAR-8
NCI-H226 = system: NCI-H226
HL-60 = system: HL-60
SR = system: SR
HOP-62 = system: HOP-62
UACC-257 = system: UACC-257
M19-MEL = system: M19-MEL
SK-MEL-28 = system: SK-MEL-28
MOLT-4 = system: MOLT-4
HCT-116 = system: HCT-116
UO-31 = system: UO-31
LXFL 529 = system: LXFL 529
SW-620 = system: SW-620
TK-10 = system: TK-10
ACHN = system: ACHN
NCI-H522 = system: NCI-H522
SF-268 = system: SF-268
SF-295 = system: SF-295
DMS-114 = system: DMS-114
RPMI-8226 = system: RPMI-8226
SNB-75 = system: SNB-75
M14 = system: M14
HCT-15 = system: HCT-15
HT-29 = system: HT-29
UACC-62 = system: UACC-62
SK-OV-3 = system: SK-OV-3
RXF 393 = system: RXF 393
A498 = system: A498
DLD-1 = system: DLD-1

Measured: GI50

CN/C=C(\C(=O)c1ccc(OC)c(OC)c1)c1ccc(OC)cc1
13.1 µM: HCT-15
active: HOP-18 < 10 nM
inactive: HCC 2998 > 10 µM | SN12C 15.3 µM | Malme-3M > 10 µM | COLO 205 17.8 µM | OVCAR-4 24.5 µM | RXF 631 14.3 µM | SK-MEL-2 15.7 µM | NCI-H460 19.2 µM | DMS-273 7.33 µM | SNB-19 17.5 µM | LOX IMVI 14.2 µM | K562 6.43 µM | EKVX 27.4 µM | NCI-H23 30.3 µM | SK-MEL-5 17.4 µM | 786-0 11.4 µM | IGROV-1 27.4 µM | CCRF-CEM 3.85 µM | A549 34.6 µM | U-251 9.29 µM | XF498 18.5 µM | SF-539 1.25 µM | KM12 12.6 µM | OVCAR-8 15 µM | NCI-H226 11.3 µM | HL-60 11.3 µM | SR 16.3 µM | HOP-62 24.7 µM | UACC-257 10.7 µM | M19-MEL 17.1 µM | SK-MEL-28 19.5 µM | MOLT-4 19.9 µM | HCT-116 4.06 µM | UO-31 12.2 µM | LXFL 529 16 µM | SW-620 17.3 µM | TK-10 17 µM | ACHN 22 µM | NCI-H522 17 µM | SF-268 24.2 µM | SF-295 40.1 µM | DMS-114 18.6 µM | RPMI-8226 3.52 µM | SNB-75 30.1 µM | M14 18.7 µM | HT-29 16.3 µM | UACC-62 16.4 µM | SK-OV-3 45.9 µM | RXF 393 14 µM | A498 13.3 µM | DLD-1 15.6 µM
